{"source": "paper PMC9371267", "about": "(PLoS Biology, 2022)", "type_in_all_cases": "cell-based", "key": {"[1]": {"biological_target": "T1, human GALR2 WT (Homo sapiens, UniProt O43603)", "T1 construct": "expressed in transfected cells; host or cells: HEK293A", "T1 sequence (O43603 1-387)": "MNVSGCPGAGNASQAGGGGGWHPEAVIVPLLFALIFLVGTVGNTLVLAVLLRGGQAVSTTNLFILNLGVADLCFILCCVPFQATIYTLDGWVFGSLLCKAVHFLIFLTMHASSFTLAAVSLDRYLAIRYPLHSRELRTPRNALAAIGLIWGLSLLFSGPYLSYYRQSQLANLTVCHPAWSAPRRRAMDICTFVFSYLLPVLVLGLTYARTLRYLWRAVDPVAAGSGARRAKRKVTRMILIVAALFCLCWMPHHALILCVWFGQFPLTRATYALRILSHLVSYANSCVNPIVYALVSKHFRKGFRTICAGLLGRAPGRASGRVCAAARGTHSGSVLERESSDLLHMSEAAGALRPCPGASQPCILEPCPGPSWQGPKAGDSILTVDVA", "experiment": "NanoBiT-based Gq activation assay (Gq-PLCβ association), WT GALR2", "details": "HEK293-A, HEK293A, normalized to WT (1:1), mean ± SEM, n = 3", "method": "(§1) After an incubation for 1 day, the transfected cells were harvested, pelleted with centrifugation, and suspended in 2 mL of Hank’s balanced saline solution containing 0.01% bovine serum albumin (BSA fatty acid–free grade, SERVA) and 5 mM HEPES (pH 7.4) (assay buffer). The cell suspension was dispensed in a white 96-well plate at a volume of 80 μl per well and mixed with 20 μl of 50 μM coelenterazine (custom-synthesized by Amadis Chemical) diluted in the assay buffer. After 2-h incubation at room temperature, the plate was measured for baseline luminescence (SpectraMax L, Molecular Devices). […] Kinetics data points from 5 min to 10 min were averaged and normalized to the initial count and used as a G-protein activation index. The G-protein activation signals were fitted to a 4-parameter sigmoidal concentration-response curve (GraphPad Prism8), and pEC50 values (negative logarithmic values of EC50 values) and Span values (“Top”–“Bottom”) were obtained. For individual experiments, we calculated Emax by normalizing Span to the WT GALR2 and ΔpEC50 by subtracting pEC50 of the WT GALR2 performed in parallel. We also calculated Emax/EC50 of GALR2 mutants relative to that of GALR2 WT, a dimensionless parameter known as relative intrinsic activity (RAi) and used its log-transformed value (Log RAi) to denote receptor activity."}, "[2]": {"biological_target": "T2, GALR2 L255^6.54A mutant (Homo sapiens, UniProt O43603, L255A)", "T2 construct": "expressed in transfected cells; host or cells: HEK293A", "T2 sequence (O43603 1-387 L255A)": "T1 sequence (O43603 1-387) with L255A", "experiment": "NanoBiT-based Gq activation assay, L255^6.54A", "details": "HEK293-A", "method": "as §1"}, "[3]": {"biological_target": "T3, GALR2 H176^ECL2A mutant (Homo sapiens, UniProt O43603, H176A)", "T3 construct": "expressed in transfected cells; host or cells: HEK293A", "T3 sequence (O43603 1-387 H176A)": "T1 sequence (O43603 1-387) with H176A", "experiment": "NanoBiT-based Gq activation assay, H176^ECL2A", "details": "HEK293-A; HEK293A; expression ~WT (1:1); normalized to WT (1:1); mean ± SEM, n = 3; ns p > 0.05 vs expression-matched WT", "method": "as §1"}, "[4]": {"biological_target": "T4, GALR2 R184^5.35×36V mutant (Homo sapiens, UniProt O43603, R184V)", "T4 construct": "expressed in transfected cells; host or cells: HEK293A", "T4 sequence (O43603 1-387 R184V)": "T1 sequence (O43603 1-387) with R184V", "experiment": "NanoBiT-based Gq activation assay, R184^5.35×36V", "details": "HEK293-A; HEK293A; expression ~WT (1:5); normalized to WT (1:1); mean ± SEM, n = 3; ns p > 0.05 vs expression-matched WT", "method": "as §1"}, "[5]": {"biological_target": "T5, GALR2 Y164^4.64×65F mutant (Homo sapiens, UniProt O43603, Y164F)", "T5 construct": "expressed in transfected cells; host or cells: HEK293A", "T5 sequence (O43603 1-387 Y164F)": "T1 sequence (O43603 1-387) with Y164F", "experiment": "NanoBiT-based Gq activation assay, Y164^4.64×65F", "details": "HEK293-A; HEK293A; expression ~WT (1:2.5); normalized to WT (1:1); mean ± SEM, n = 3; * p < 0.05 vs expression-matched WT", "method": "as §1"}}, "note": "Positions count from the first letter of the chain named.", "data": [{"smiles": "CC(C)C[C@H](NC(=O)CNC(=O)[C@H](CC(N)=O)NC(=O)[C@H](CCCCN)NC(=O)[C@H](CC(=O)O)NC(=O)[C@H](CO)NC(=O)[C@H](Cc1ccccc1)NC(=O)[C@H](CO)NC(=O)[C@H](CCCNC(=N)N)NC(=O)[C@H](Cc1c[nH]cn1)NC(=O)[C@H](CC(N)=O)NC(=O)CNC(=O)[C@@H](NC(=O)[C@H](C)NC(=O)[C@H](Cc1c[nH]cn1)NC(=O)[C@@H]1CCCN1C(=O)CNC(=O)[C@H](CC(C)C)NC(=O)[C@H](CC(C)C)NC(=O)[C@H](Cc1ccc(O)cc1)NC(=O)CNC(=O)[C@H](C)NC(=O)[C@H](CO)NC(=O)[C@H](CC(N)=O)NC(=O)[C@H](CC(C)C)NC(=O)[C@@H](NC(=O)[C@H](Cc1c[nH]c2ccccc12)NC(=O)CN)[C@@H](C)O)C(C)C)C(=O)N[C@H](C(=O)N[C@@H](CO)C(=O)O)[C@@H](C)O", "note": "[galanin]", "values": [{"measurement": "Emax", "setting": "[1]; WT (1:5) plasmid", "value": "70.1 ± 8.7", "unit": "%"}, {"measurement": "Emax", "setting": "[1]; WT (1:10) plasmid", "value": "48.3 ± 4.7", "unit": "%"}, {"measurement": "Emax", "setting": "[1]; WT (1:25) plasmid", "value": "27.4 ± 5.1", "unit": "%"}, {"measurement": "Emax", "setting": "[2]", "value": "64.7 ± 1.6", "unit": "%"}, {"measurement": "Emax", "setting": "[3]", "value": "116 ± 3.4", "unit": "%"}, {"measurement": "Emax", "setting": "[4]", "value": "60 ± 6", "unit": "%"}, {"measurement": "Emax", "setting": "[5]", "value": "64.9 ± 2.4", "unit": "%"}]}]}
